In publication PMC9412861, “Understanding the pH Dependence of Supersaturation State—A Case Study of Telmisartan” (Pharmaceutics, 2022):
Like-named read-outs stand apart in the source and are kept apart here.

Key:
[1] = UV/pH titration in MeOH-water mixtures with Yasuda–Shedlovsky extrapolation; assay type: physicochemical; conditions: methanol-water mixtures, UV/pH titration in MeOH-water mixture, 25 °C, aqueous value by Yasuda–Shedlovsky extrapolation
Experimental: The cosolvent dissociation constants (psKa values) were determined in various MeOH-water mixtures between 8–34% (w/w) under the same experimental conditions as in aqueous medium. The aqueous pKa values were calculated from the measured psKa values in methanol-water solutions using the Yasuda–Shedlovsky extrapolation method. The Yasuda–Shedlovsky procedure is based on the linear relation between psKa and the dielectric constant (ε) of the cosolvent mixture:(1) psKa+log[H2O]=a/ε+b where ε is the dielectric constant, and log[H2O] is the molar water concentration of the given methanol-water mixture.

[2] = XRD characterization of solid phase isolated from solubility suspension; assay type: physicochemical; conditions: solid phase from solubility measurement, Prisma HT buffer
Experimental: X-ray powder diffraction (XRD) measurements were performed by X’pert Pro MPD X-ray diffractometer (PANalytical B.v., Armelo, The Netherlands).

[3] = 1H NMR/pH titration (pKa determination); assay type: physicochemical; conditions: 5 v/v % D2O-95 v/v % H2O, NMR-pH titration, 25 °C, I = 0.15 M
Experimental: All NMR measurements were performed on a Varian 600 MHz spectrometer (Varian Inc., Palo Alto, CA, USA) with a dual 5 mm inverse-detection gradient probehead at 25 °C, constant ionic strength (I = 0.15 M) and using 5 v/v % D2O–95 v/v % H2O as solvent. The spectra were referenced to internal DSS (sodium 3-(trimethylsilyl)-1-propanesulfonate) as chemical shift reference. The pH of the samples (600 μL)were adjusted with concentrated HCl and NaOH and determined by in situ internal indicator molecules optimized for NMR [39, 40]. The concentration of telmisartan was below 1 mM during in the titration solution, due to its poor solubility, but all the peaks were still clearly visible. The water resonance was diminished by a double pulse field gradient spin echo sequence (number of transients = 16, number of points = 16,384, acquisition time = 3.33 s, relaxation delay = 1.5 s).
In order to obtain the acid dissociation constants from the chemical shifts–pH profiles, the software Origin Pro 8 (OriginLab Corp., Northampton, MA, USA) was used to perform non-linear regression with the following function:(2) δobs(pH)=δX^−+∑i=1nδHiX^i−1×10^logβi−i×pH/1+∑i=1n10^logβi−i×pH where δX^- is the chemical shift of the unprotonated ligand (X^−), δHiX^i-1 values stand for the chemical shifts of successively protonated species of X^−, n is the maximum number of protons that can bind to the unprotonated ligand, β is the cumulative macroconstant. The standard deviations of logβ values from the regression analyses were used to calculate the Gaussian propagation of uncertainty for the other equilibrium constants.

[4] = between pH 3–8; cited from earlier work
[5] = UV/pH titration in aqueous medium (pKa determination); assay type: physicochemical; conditions: for pKa: aqueous 0.15 M KCl solution, UV/pH titration in aqueous medium, I = 0.15 M KCl; for predominant protonated macrospecies: calculated from pKa values at 37 °C
Experimental: The pKa values of telmisartan were determined by UV-pH titration using the D-PAS™ ultra-violet spectrophotometer attached to a GLpKa instrument (Sirius Analytical Instruments Ltd., Forest Row, UK). First, a stock solution of TEL was prepared in methanol (2 mg/mL). […] Spectra were registered in the 200–700 nm region. The pKa values were calculated by RefinementPro^TM software (Sirius Analytical Instruments Ltd., Forest Row, UK).

[6] = Thermodynamic (equilibrium) solubility, saturation shake-flask, in distilled water; assay type: physicochemical
Experimental: The methods for thermodynamic solubility measurements can be found in Baka et al. (measured amount of TEL: 1 mg/mL, 37 °C, 6 h strirring, 18 h sedimentation). During the thermodynamic solubility measurements in Prisma buffers the concentration of the API was determined without filtering the solutions by the Rainbow Dynamic Dissolution Monitor instrument (Pion Inc., Billerica, MA, USA). In the case of solubility measurements in distilled water, the concentration of the API after filtration with PVDF membrane (0.22 µm) was determined by Jasco V-550 UV–vis spectrophotometer (Jasco Inc., Easton, MD, USA).

[7] = ESI mass spectrometry of saturated solutions (aggregation); assay type: physicochemical; conditions: buffer-free saturated solution
Experimental: An ESI- triple quadrupole-MS/MS instrument (4000 Q TRAP) from Applied Biosystems (Foster City, CA, USA) was used for the MS and MS/MS measurements. Compounds were analyzed in the positive mode, and the settings were ion spray voltage 4500 V, ion source gas (N2) 16 arbitrary units (a.u.), curtain gas (N2) 10 a.u., declustering potential 20 V, and entrance potential 10 V. For MS/MS experiments, the settings were collision gas (N2) medium, and collision energy 51 V. Saturated samples were infused at a rate of 6 μL/min using Harvard Apparatus Syringe pump (Holliston, MA, USA). Analyst 1.4.2. software from Applied Biosystems (Foster City, CA, USA) was used for data acquisition and processing.

[8] = read-out: pKa1 ± SD (Carboxyl Group)
[9] = read-out: pKa2 ± SD (Middle Benzimidazole Ring)
[10] = read-out: pKa3 ± SD (Terminal Benzimidazole Ring)

Question: Which pKa [1, 8] does the source give for `CCCc1nc2c(C)cc(-c3nc4ccccc4n3C)cc2n1Cc1ccc(-c2ccccc2C(=O)O)cc1` [Telmisartan, telmisartan] here?
Answer: 3.03 ± 0.06

Question: What about the pKa [1, 9] of the same compound?
Answer: 4.19 ± 0.07

Question: And the pKa [1, 10]?
Answer: 6.14 ± 0.1

Question: And the “XRD Characterization” value ([2]; pH 1.60)?
Answer: Crystalline

Question: And the “XRD Characterization” value ([2]; pH 2.15)?
Answer: Crystalline

Question: What about the “XRD Characterization” value ([2]; pH 2.50) of the same compound?
Answer: Crystalline

Question: What about the “XRD Characterization” value ([2]; pH 3.08) of the same compound?
Answer: Crystalline

Question: And the “XRD Characterization” value ([2]; pH 3.82)?
Answer: Crystalline

Question: And the “XRD Characterization” value ([2]; pH 6.50)?
Answer: Crystalline

Question: And the “XRD Characterization” value ([2]; pH 7.88)?
Answer: Crystalline

Question: And the “XRD Characterization” value ([2]; pH 9.40)?
Answer: amorphous background

Question: And the “XRD Characterization” value ([2]; pH 9.79)?
Answer: amorphous background

Question: What about the “XRD Characterization” value ([2]; pH 11.74) of the same compound?
Answer: Amorphous

Question: What about the pKa [3, 8] of the same compound?
Answer: 3.21 ± 0.14

Question: And the pKa [3, 9]?
Answer: 4.28 ± 0.07

Question: What about the pKa [3, 10] of the same compound?
Answer: 6.08 ± 0.04

Question: And the solubility [4]?
Answer: low solubility

Question: What about the pKa ([5]; 25 °C, read-out: pKa1 ± SD (Carboxyl Group)) of the same compound?
Answer: 3.03 ± 0.04

Question: And the pKa ([5]; 25 °C, read-out: pKa2 ± SD (Middle Benzimidazole Ring))?
Answer: 4.22 ± 0.09

Question: What about the pKa ([5]; 25 °C, read-out: pKa3 ± SD (Terminal Benzimidazole Ring)) of the same compound?
Answer: 6.08 ± 0.07

Question: And the pKa ([5]; 37 °C, read-out: pKa1 ± SD (Carboxyl Group))?
Answer: 3.04 ± 0.03

Question: And the pKa ([5]; 37 °C, read-out: pKa2 ± SD (Middle Benzimidazole Ring))?
Answer: 4.08 ± 0.02

Question: What about the pKa ([5]; 37 °C, read-out: pKa3 ± SD (Terminal Benzimidazole Ring)) of the same compound?
Answer: 5.91 ± 0.05

Question: And the predominant protonated macrospecies ([5]; gastric pH (pH 1–2))?
Answer: dication (XH3^2+)

Question: And the predominant protonated macrospecies ([5]; intestinal pH (pH 5–6.5))?
Answer: monoprotonated (XH) and the unprotonated anionic (X^−)

Question: And the predominant protonated macrospecies ([5]; pH of plasma (pH 7.4))?
Answer: anionic (X^−)

Question: What about the solubility thermodynamic at 6 h ([6]; pH 2.66, 37 °C, read-out: Equilibrium solubility S ± SD) of the same compound?
Answer: 10.8 ± 0.53 µg/mL

Question: What about the solubility thermodynamic at 6 h ([6]; pH 2.66, 37 °C, read-out: Equilibrium solubility logS ± SD (converted)) of the same compound?
Answer: 20.9 µM

Question: What about the solubility thermodynamic at 6 h ([6]; thermodynamic from solid, pH 2.16, 37 °C, read-out: Equilibrium solubility S ± SD) of the same compound?
Answer: 148 ± 5.48 µg/mL

Question: What about the solubility thermodynamic at 6 h ([6]; thermodynamic from solid, pH 2.16, 37 °C, read-out: Equilibrium solubility logS ± SD (converted)) of the same compound?
Answer: 288 µM

Question: What about the solubility thermodynamic at 6 h ([6]; thermodynamic from solid, pH 3.08, 37 °C, read-out: Equilibrium solubility S ± SD) of the same compound?
Answer: 3.4 ± 0.49 µg/mL

Question: What about the solubility thermodynamic at 6 h ([6]; thermodynamic from solid, pH 3.08, 37 °C, read-out: Equilibrium solubility logS ± SD (converted)) of the same compound?
Answer: 6.61 µM

Question: And the solubility thermodynamic at 6 h ([6]; thermodynamic from solid, pH 3.98, 37 °C, read-out: Equilibrium solubility S ± SD)?
Answer: 0.36 ± 0.12 µg/mL

Question: What about the solubility thermodynamic at 6 h ([6]; thermodynamic from solid, pH 3.98, 37 °C, read-out: Equilibrium solubility logS ± SD (converted)) of the same compound?
Answer: 0.692 µM

Question: And the solubility thermodynamic at 6 h ([6]; thermodynamic from solid, pH 7.22, 37 °C, read-out: Equilibrium solubility S ± SD)?
Answer: 3.65 ± 0.11 µg/mL

Question: And the solubility thermodynamic at 6 h ([6]; thermodynamic from solid, pH 7.22, 37 °C, read-out: Equilibrium solubility logS ± SD (converted))?
Answer: 7.08 µM

Question: And the solubility thermodynamic at 6 h ([6]; thermodynamic from solid, pH 7.4, 37 °C, read-out: Equilibrium solubility S ± SD)?
Answer: 13.8 ± 2.81 µg/mL

Question: What about the solubility thermodynamic at 6 h ([6]; thermodynamic from solid, pH 7.4, 37 °C, read-out: Equilibrium solubility logS ± SD (converted)) of the same compound?
Answer: 26.9 µM

Question: And the “dimerization in solution by MS” value ([7]; higher pHs (e.g., pH 10))?
Answer: no dimerization could be observed

Question: And the “dimerization in solution by MS” value ([7]; pH range 3–8)?
Answer: peak corresponding to the dimeric structure could be detected
